Data reported in patent US4871571A, “Dietetic foodstuff containing low calorie bulking agent” (Novo Industri A/S, priority 1987, dated 1989).
Like-named read-outs stand apart in the source and are kept apart here. One block for each molecule: values may come before it.

Experiments:
[1] = tested on: rats; experiment: Weight increase of rats after an additional 6 weeks and digestibility calculated from it; type: in vivo; conditions: after an additional 6 weeks, diet with 10% of substance
Procedure: Later, after an additional 6 weeks the weight increase was measured.
The percentual weight difference, y % of the bulking agent, taking the sucrose as a control with an assumed digestibility of 100%, thus can be calculated according to the equation: [formula]
As the bulking agent is only 10% of the diet, the digestibility, x %, can be calculated according to the equation: […]
The digestibility of Polydextose and Neosugar can be calculated in a similar manner. In the following table the calculated 6 weeks digestibilities of the bulking agents are shown.

[2] = 10% w/w aqueous solution
Procedure: After given storage periods of 2,6,24 hours the percentage decomposition was measured according to the formula [formula] wherein DP2^+ is the amount of oligomers with a DP of 2 or more.

[3] = tested on: rats; conditions: rat, in vivo
Procedure: The control diet consisted of the following ingredients in the indicated ratios:
Four other diets were prepared by substituting for corn starch corresponding to 10% by weight of the entire control diet equal amounts respectively: of the bulking agent according to the invention; Neosugar; Polydextrose; and sucrose.
Groups comprising five rats in each group were fed with these diets, and the digestible dry matter was measured after a preliminary period of 10 days by differential gravimetric determination.

percentage decomposition ([2]; 2 h, pH 5): 0% | percentage decomposition ([2]; 2 h, pH 6): 0% | percentage decomposition ([2]; 2 h, pH 7): 0% | percentage decomposition ([2]; 5 h, pH 2): 97.2% | percentage decomposition ([2]; 5 h, pH 3): 31.8% | percentage decomposition ([2]; 5 h, pH 4): 5.8% | percentage decomposition ([2]; 5 h, pH 5): 0% | percentage decomposition ([2]; 5 h, pH 6): 0% | percentage decomposition ([2]; 5 h, pH 7): 0% | percentage decomposition ([2]; 6 h, pH 2): 15.0% | percentage decomposition ([2]; 6 h, pH 3): 3.7% | percentage decomposition ([2]; 6 h, pH 4): 0% | percentage decomposition ([2]; 6 h, pH 5): 0% | percentage decomposition ([2]; 6 h, pH 6): 0% | percentage decomposition ([2]; 6 h, pH 7): 0% | percentage decomposition ([2]; 24 h, pH 5): 0% | percentage decomposition ([2]; 24 h, pH 6): 0% | percentage decomposition ([2]; 24 h, pH 7): 0% | percentage decomposition ([2]; 48 h, pH 2): 100% | percentage decomposition ([2]; 48 h, pH 3): 77.2% | percentage decomposition ([2]; 48 h, pH 4): 10.8% | percentage decomposition ([2]; 48 h, pH 5): 1.6% | percentage decomposition ([2]; 48 h, pH 6): 0% | percentage decomposition ([2]; 48 h, pH 7): 0% | Digestible dry matter of diet, mean [3]: 94.1%
Molecule: OC[C@H]1O[C@@](CO)(O[C@H]2O[C@H](CO)[C@@H](O)[C@H](O)[C@H]2O)[C@@H](O)[C@@H]1O [Sucrose, sucrose]
Average weight increase [1]: 220.11 g

Digestible dry matter of diet, mean [3]: 91.8% | Digestible dry matter of the bulking agent, x % [3]: 68%
Molecule: Polydextrose
